Patent US20100292255A1, “Therapeutic Compounds and Their Use in Treating Diseases and Disorders” (Myriad Pharmaceuticals, Inc., priority 2007, published 2010)
pIC50: −log10 of the molar value.

Each molecule was assayed on T1, purified human Hsp90 (assay: Hsp90 binding assay: displacement of BODIPY-labeled geldanamycin measured by fluorescence polarization). Details: 5 μM compound; BODIPY-GM 10 nM, Hsp90 30 nM, overnight at room temperature.
T1 construct: purified human Hsp90 (Stressgen, SPP-770)
In short: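 Purified human Hsp90 at 30 nM and 10 nM BODIPY-GM tracer were incubated overnight at room temperature with compound in 2% DMSO. The buffer was 20 mM HEPES-KOH pH 7.3, 50 mM KCl, 5 mM MgCl2, 20 mM Na2MoO4, 2 mM DTT. Background-subtracted mP values read at 485/530 nm were normalized to DMSO wells to give % inhibition.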
With `CS(=O)(=O)N1CCCC(CCn2cnc(N)c3nc(Sc4cc5c(cc4C#N)OCO5)nc2-3)C1` (stereo not drawn) [compound 48, 6-[(6-Amino-3-{2-[1-(methylsulfonyl)piperidin-3-yl]ethyl}-3H-purin-8-yl)thio]-1,3-benzodioxole-5-carbonitrile] the “GM displacement from purified Hsp90 measured by FP Inhibition by 5 μM compd. (%)” value was 77.0%.
`CS(=O)(=O)N1CCCC(CCn2cnc(N)c3nc(Sc4cc5c(cc4C#N)OCCO5)nc2-3)C1` (stereo not drawn) [compound 53, 7-[(6-Amino-3-{2-[1-(methylsulfonyl)piperidin-3-yl]ethyl}-3H-purin-8-yl)thio]-2,3-dihydro-1,4-benzodioxine-6-carbonitrile] was tested, and the “GM displacement from purified Hsp90 measured by FP Inhibition by 5 μM compd. (%)” value was 60.0%.
For `CS(=O)(=O)N1CCC(CCn2cnc(N)c3nc(Sc4cc5c(cc4C#N)OCCO5)nc2-3)CC1` [compound 55], the “GM displacement from purified Hsp90 measured by FP Inhibition by 5 μM compd. (%)” value was 26.0%.
`N#Cc1cc2c(cc1Sc1nc3c(N)ncn(CCn4c(=O)n5n(c4=O)CC=CC5)c-3n1)OCO2` [compound 63] was tested, and the “GM displacement from purified Hsp90 measured by FP Inhibition by 5 μM compd. (%)” value was 34.0%.
In the case of `Nc1ncn(CCC2CCN(C=O)CC2)c2nc(Sc3cc4c(cc3[N+](=O)[O-])OCO4)nc1-2` [compound 65, 4-(2-{6-Amino-8-[(6-nitro-1,3-benzodioxol-5-yl)thio]-3H-purin-3-yl}ethyl)piperidine-1-carbaldehyde], the “GM displacement from purified Hsp90 measured by FP Inhibition by 5 μM compd. (%)” value was 25.0%.
`CC(=O)N1CCC(CCn2cnc(N)c3nc(Sc4cc5c(cc4[N+](=O)[O-])OCCO5)nc2-3)CC1` [compound 69, 3-[2-(1-Acetylpiperidin-4-yl)ethyl]-8-[(7-nitro-2,3-dihydro-1,4-benzodioxin-6-yl)thio]-3H-purin-6-amine] was tested, and the “GM displacement from purified Hsp90 measured by FP Inhibition by 5 μM compd. (%)” value was 46.0%.
`CC(=O)N1CCC(CCn2cnc(N)c3nc(Sc4cc5c(cc4[N+](=O)[O-])OCO5)nc2-3)CC1` [compound 71, 3-[2-(1-Acetylpiperidin-4-yl)ethyl]-8-[(6-nitro-1,3-benzodioxol-5-yl)thio]-3H-purin-6-amine] was tested, and the “GM displacement from purified Hsp90 measured by FP Inhibition by 5 μM compd. (%)” value was 23.0%.
`CC(=O)N1CCC(CCn2cnc(N)c3nc(Sc4cc5c(cc4Cl)OCCO5)nc2-3)CC1` [compound 72, 3-[2-(1-Acetylpiperidin-4-yl)ethyl]-8-[(7-chloro-2,3-dihydro-1,4-benzodioxin-6-yl)thio]-3H-purin-6-amine] was tested, and the “GM displacement from purified Hsp90 measured by FP Inhibition by 5 μM compd. (%)” value was 23.0%.
In the case of `CCC(=O)N1CCC(CCn2cnc(N)c3nc(Sc4cc5c(cc4C#N)C(=O)CC5)nc2-3)CC1` [compound 74, 6-({6-Amino-3-[2-(1-propionylpiperidin-4-yl)ethyl]-3H-purin-8-yl}thio)-3-oxoindane-5-carbonitrile], the “GM displacement from purified Hsp90 measured by FP Inhibition by 5 μM compd. (%)” value was 18.0%.
For `COc1ccc(OC(F)(F)F)c(Sc2nc3c(N)ncn(CCC4CCN(C=O)CC4)c-3n2)c1` [compound 78], the “GM displacement from purified Hsp90 measured by FP Inhibition by 5 μM compd. (%)” value was 14.0%.
In the case of `COc1ccc(C#N)c(Sc2nc3c(N)ncn(CCC4CCN(C=O)CC4)c-3n2)c1` [compound 80], the “GM displacement from purified Hsp90 measured by FP Inhibition by 5 μM compd. (%)” value was 34.0%.
In the case of `CCCC(=O)N1CCC(CCn2cnc(N)c3nc(Sc4cc5c(cc4Br)OCCO5)nc2-3)CC1` [compound 83, 8-[(7-Bromo-2,3-dihydro-1,4-benzodioxin-6-yl)thio]-3-[2-(1-butyrylpiperidin-4-yl)ethyl]-3H-purin-6-amine], the “GM displacement from purified Hsp90 measured by FP Inhibition by 5 μM compd. (%)” value was 19.0%.

Same assay, conditions: BODIPY-GM 10 nM, Hsp90 30 nM, overnight at room temperature; read-out: GM displacement from purified Hsp90 measured by FP IC 50
Molecule `CO[C@H](C)C(=O)N1CCC(CCn2c(Sc3cc4c(cc3C#N)OCCO4)nc3c(N)ncnc32)CC1` [compound 44, 7-{[6-Amino-9-(2-{1-[(2R)-2-methoxypropanoyl]piperidin-4-yl}ethyl)-9H-purin-8-yl]thio}-2,3-dihydro-1,4-benzodioxine-6-carbonitrile] has a pIC50 of 6.52.
Work on `COCC(=O)N1CCC(CCn2c(Sc3cc4c(cc3C#N)OCCO4)nc3c(N)ncnc32)CC1` [compound 45, 7-[(6-Amino-9-{2-[1-(methoxyacetyl)piperidin-4-yl]ethyl}-9H-purin-8-yl)thio]-2,3-dihydro-1,4-benzodioxine-6-carbonitrile] yielded a pIC50 of 6.66.
In the case of `CS(=O)(=O)N1CCCCC1CCn1c(Sc2cc3c(cc2C#N)OCO3)nc2c(N)ncnc21` (stereo not drawn) [compound 46, 6-[(6-Amino-9-{2-[1-(methylsulfonyl)piperidin-2-yl]ethyl}-9H-purin-8-yl)thio]-1,3-benzodioxole-5-carbonitrile], the pIC50 was 6.15.
In the case of `CS(=O)(=O)N1CCCC(CCn2c(Sc3cc4c(cc3C#N)OCO4)nc3c(N)ncnc32)C1` (stereo not drawn) [compound 47, 6-[(6-Amino-9 {2-[1-(methylsulfonyl)piperidin-3-yl]ethyl}-9H-purin-8-yl)thio]-1,3-benzodioxole-5-carbonitrile], the pIC50 was 7.05.
Molecule `CS(=O)(=O)N1CCC(CCn2c(Sc3cc4c(cc3C#N)OCO4)nc3c(N)ncnc32)CC1` [compound 49, 6-[(6-Amino-9-{2-[1-(methylsulfonyl)piperidin-4-yl]ethyl}-9H-purin-8-yl)thio]-1,3-benzodioxole-5-carbonitrile] has a pIC50 of 6.32.
`CCCN1CCCCC1CCn1c(Sc2cc3c(cc2C#N)OCO3)nc2c(N)ncnc21` (stereo not drawn) [compound 50, 6-({6-Amino-9-[2-(1-propylpiperidin-2-yl)ethyl]-9H-purin-8-yl}thio)-1,3-benzodioxole-5-carbonitrile] showed a pIC50 of 5.92.
`CS(=O)(=O)N1CCCCC1CCn1c(Sc2cc3c(cc2C#N)OCCO3)nc2c(N)ncnc21` (stereo not drawn) [compound 51, 7-[(6-Amino-9-{2-[1-(methylsulfonyl)piperidin-2-yl]ethyl}-9H-purin-8-yl)thio]-2,3-dihydro-1,4-benzodioxine-6-carbonitrile] showed a pIC50 of 6.43.
With `CS(=O)(=O)N1CCCC(CCn2c(Sc3cc4c(cc3C#N)OCCO4)nc3c(N)ncnc32)C1` (stereo not drawn) [compound 52, 7-[(6-Amino-9-{2-[1-(methylsulfonyl)piperidin-3-yl]ethyl}-9H-purin-8-yl)thio]-2,3-dihydro-1,4-benzodioxine-6-carbonitrile] the pIC50 was 6.82.
`CS(=O)(=O)N1CCC(CCn2c(Sc3cc4c(cc3C#N)OCCO4)nc3c(N)ncnc32)CC1` [compound 54, 7-[(6-Amino-9-{2-[1-(methylsulfonyl)piperidin-4-yl]ethyl}-9H-purin-8-yl)thio]-2,3-dihydro-1,4-benzodioxine-6-carbonitrile] was tested, and the pIC50 was 6.26.
`N#Cc1cc2c(cc1Sc1nc3c(N)ncnc3n1CCC1CCN(C=O)CC1)OCCO2` [compound 57] gave a pIC50 of 6.92.
With `Cn1nnnc1N1CCC(CCn2c(Sc3cc4c(cc3C#N)OCCO4)nc3c(N)ncnc32)CC1` [compound 58, 7-[(6-Amino-9-{2-[1-(1-methyl-1H-tetrazol-5-yl)piperidin-4-yl]ethyl}-9H-purin-8-yl)thio]-2,3-dihydro-1,4-benzodioxine-6-carbonitrile] the pIC50 was 6.74.
Molecule `CC(=O)N1CCC(CCn2c(Sc3cc4c(cc3C#N)OCCO4)nc3c(N)ncnc32)CC1` [compound 60, 7-({9-[2-(1-Acetylpiperidin-4-yl)ethyl]-6-amino-9H-purin-8-yl}thio)-2,3-dihydro-1,4-benzodioxine-6-carbonitrile] has a pIC50 of 7.22.
Molecule `CCC(=O)N1CCC(CCn2c(Sc3cc4c(cc3C#N)OCO4)nc3c(N)ncnc32)CC1` [compound 61] has a pIC50 of 6.70.
`Nc1ncnc2c1nc(Sc1cc3c(cc1[N+](=O)[O-])OCO3)n2CCC1CCN(C=O)CC1` [compound 64, 4-(2-{6-Amino-8-[(6-nitro-1,3-benzodioxol-5-yl)thio]-9H-purin-9-yl}ethyl)piperidine-1-carbaldehyde] was tested, and the pIC50 was 5.82.
Molecule `Nc1ncnc2c1nc(Sc1cc3c(cc1[N+](=O)[O-])OCCO3)n2CCC1CCN(C=O)CC1` [compound 66, 4-(2-{6-Amino-8-[(7-nitro-2,3-dihydro-1,4-benzodioxin-6-yl)thio]-9H-purin-9-yl}ethyl)piperidine-1-carbaldehyde] has a pIC50 of 7.14.
Work on `CC(=O)N1CCC(CCn2c(Sc3cc4c(cc3[N+](=O)[O-])OCCO4)nc3c(N)ncnc32)CC1` [compound 68, 9-[2-(1-Acetylpiperidin-4-yl)ethyl]-8-[(7-nitro-2,3-dihydro-1,4-benzodioxin-6-yl)thio]-9H-purin-6-amine] yielded a pIC50 of 7.30.
`CC(=O)N1CCC(CCn2c(Sc3cc4c(cc3[N+](=O)[O-])OCO4)nc3c(N)ncnc32)CC1` [compound 70] showed a pIC50 of 6.34.
For `CC(=O)N1CCC(CCn2c(Sc3cc4c(cc3Cl)OCCO4)nc3c(N)ncnc32)CC1` [compound 73, 9-[2-(1-Acetylpiperidin-4-yl)ethyl]-8-[(7-chloro-2,3-dihydro-1,4-benzodioxin-6-yl)thio]-9H-purin-6-amine], the pIC50 was 6.59.
`CC(=O)N1CCC(CCn2c(Sc3cc4c(cc3CC#N)OCO4)nc3c(N)ncnc32)CC1` [compound 75, [6-({9-[2-(1-Acetylpiperidin-4-yl)ethyl]-6-amino-9H-purin-8-yl}thio)-1,3-benzodioxol-5-yl]acetonitrile] was tested, and the pIC50 was 5.60.
`Nc1ncnc2c1nc(Sc1cc3c(cc1I)CCC3)n2CCC1CCN(C=O)CC1` [compound 76, 4-(2-{6-Amino-8-[(6-iodo-2,3-dihydro-1H-inden-5-yl)thio]-9H-purin-9-yl}ethyl)piperidine-l-carbaldehyde] gave a pIC50 of 7.15.
`COc1ccc(OC(F)(F)F)c(Sc2nc3c(N)ncnc3n2CCC2CCN(C=O)CC2)c1` [compound 77, 4-[2-(6-Amino-8-{[5-methoxy-2-(trifluoromethoxy)phenyl]thio}-9H-purin-9-yl)ethyl]piperidine-1-carbaldehyde] showed a pIC50 of 6.40.
`COc1ccc(C#N)c(Sc2nc3c(N)ncnc3n2CCC2CCN(C=O)CC2)c1` [compound 79] showed a pIC50 of 6.15.
Molecule `CCCC(=O)N1CCC(CCn2c(Sc3cc4c(cc3Br)OCCO4)nc3c(N)ncnc32)CC1` [compound 81, 8-[(7-Bromo-2,3-dihydro-1,4-benzodioxin-6-yl)thio]-9-[2-(1-butyrylpiperidin-4-yl)ethyl]-9H-purin-6-amine] has a pIC50 of 7.00.
In the case of `CCCC(=O)N1CCC(CCn2c(Sc3cc4c(cc3Br)OCO4)nc3c(N)ncnc32)CC1` [compound 82, 8-[(6-Bromo-1,3-benzodioxol-5-yl)thio]-9-[2-(1-butyrylpiperidin-4-yl)ethyl]-9H-purin-6-amine], the pIC50 was 6.53.
